Test results from ChEMBL document CHEMBL3507680, “University of Dundee, Gates Library screen for HepG2 cell viability”.

Assay: Human HepG2 cell viability assay in 384 well format
Assay type: toxicity, cell-based
Design: dose 125 nL, time 70.5 hour; concentration not given beside the values
Conditions: HepG2 cells, read-out: Inhibition

SMILES | cytotoxicity at 70.5 h
CCCc1n[nH]c(C2CN(CCCS(C)(=O)=O)CCO2)n1 (centres undefined) | -4.54%
O=C(c1c[nH]c(=O)c(Cl)c1)N1C[C@@H]2CC[C@H](C1)N(CC1CCC1)C2 | 19.9%
COCCC(=O)NCCn1nc(C2CCNC2)c2cccnc21 (centres undefined) | 14.1%
NC(=O)CN1CCCC(c2cncc(Nc3ncccn3)n2)C1 (centres undefined) | -6.48%
CC(C)NC(=O)N1CCN(C(=O)N(C)C)CC2(CC(=O)N(C)C2)C1 (centres undefined) | -6.79%
CN(CCC(=O)N1CCc2sccc2C1)Cc1cnn(C)c1 | -2.72%
COCCCNS(=O)(=O)c1ccc(N2CCCCS2(=O)=O)cc1 | -9.62%
CC(C)N(C)Cc1cncc2c1CCN(C(=O)c1ccccc1F)C2 | -1.95%
C=C(C)CN1CCC(NC(=O)Nc2cc(C(N)=O)ccc2OC)CC1 | -2.27%
COc1cccc(NC(=O)N(CCC(F)(F)F)C[C@H](O)CO)c1 | -4.42%
Cc1nc2c(c(NC(C)C)n1)CCN(C(=O)c1ccno1)CC2 | -6.32%
CN(CCN1CCCCCC1)Cc1cnc(N)nc1 | -6%
CC(C)(C(N)=O)S(=O)(=O)c1ccc(Br)cc1 | -6.61%
COc1cc(C2CC(=O)Oc3cc(C)[nH]c(=O)c32)ccc1OCC(=O)O (centres undefined) | -14.1%
Cc1noc(C)c1CN1C(=O)[C@H]2CC[C@@H]1CN(Cc1nccs1)C2 | 0.0707%
Cc1nn(C)c2c(N3CCC(C)CC3)nc(C3CC3)nc12 | -11.4%
COc1cccc(CN(C)C(=O)c2ccc(NC(C)=O)s2)c1OC | -62.7%
COc1ccc(-c2noc(C(=O)NCCN3CCCCC3)n2)cc1OC | 26.1%
Cc1nn2c(N3CCCC(C#N)C3)cc(-c3ccccc3)nc2c1C (centres undefined) | 1.82%
Cc1sc(NC(=O)CN2CCCC(c3ncc[nH]3)C2)c(C)c1C (centres undefined) | -14.9%
CC(=O)c1ccc(F)cc1-c1cc(NCCO)nc2[nH]ccc12 | -0.208%
COc1ncccc1C(=O)Nc1nc2c(s1)CN(S(=O)(=O)C1CC1)CC2 | 3.95%

SMILES | cytotoxicity at 70.5 h
C[C@@H]1CN(C(=O)C2CCS(=O)(=O)CC2)CC[C@@]1(O)C1CCOCC1 | -11%
CCN1C(=O)CC(c2cccnc2)C12CCN(c1ncc(F)cn1)CC2 (centres undefined) | 1.09%
c1ccc(Oc2nccnc2C2CCN(C3CCOCC3)CC2)cc1 | -7.7%
O=C(c1ccc2cc[nH]c2c1)N1CCC(Nc2cccnn2)CC1 | -4.46%
CC(C)c1nn(C)c(Cl)c1CNCc1ccc(N(C)C)nc1 | -2.07%
O=C(CCc1cccc(Cl)c1Cl)N1CCOCC1c1ncon1 (centres undefined) | -1.88%
CCCNC(=O)CCNC(=O)N1CCC(=Cc2ccccc2)CC1 | -4.61%
O=C(c1cc[nH]n1)N1CCC2(CC1)CC(Oc1cccnc1)CO2 (centres undefined) | 8.68%
CCCN1CCC(NN2CCN(C)CC2)CC1 | -6.76%
Cc1cnn(C2CCCN(C(=O)Cc3ccc(C#N)cc3)C2)c1 (centres undefined) | -2.96%
Cc1ncc(C(=O)N2CCCC(n3nc(C)nc3C)C2)c(C(C)C)n1 (centres undefined) | -4.64%
Cc1ccccc1C1(CNC(=O)N2CCC(CC(N)=O)CC2)CC1 | -4.35%
O=C1CSC(c2ccsc2)c2c(n(C3CCCC3)[nH]c2=O)N1 (centres undefined) | -12.7%
CCn1cc(S(=O)(=O)N2CCCC2c2ccc(C)o2)cn1 (centres undefined) | 2.79%
CN(C)c1cc(CNC(=O)c2c(F)cccc2F)ccn1 | 1.27%
CC(C)=CCC/C(C)=C/CC(C)(C)CNCc1ccco1 | -1%
O=C(C1CC(=O)N(C2CC2)C1)N1CCN(CCn2cccc2)CC1 (centres undefined) | -1.53%
CSc1ccc(-c2nc(CN3C[C@@H](C)NC[C@@H]3C)c(C)o2)cc1 | -4.1%
O=C(c1cnoc1)N1CCC[C@]2(C[C@H](Oc3ncccc3F)CO2)C1 | -3.55%
O=C(CC1CC1)NC1CCc2c(ccc(=O)n2CC2CC2)C1 (centres undefined) | 0.842%
Cc1ccc2nc(C)c(C)c(C(=O)N[C@H]3COC[C@@H]3N3CCCC3)c2c1 | -3.96%
CCn1cc(CN2CCCN(C(=O)c3ccn(C)c(=O)c3)CC2)cn1 | 20.6%
